Laboratory results taken from ChEMBL document CHEMBL3877246, “Antileishmanial effect of new indeno-1,5-naphthyridines, selective inhibitors of Leishmania infantum type IB DNA topoisomerase” (Eur J Med Chem, 2016).
Activity calls are given as the source filed them. No cut-off for these calls is given here.

Experiments:
[1] = Cytotoxicity against BALB/c mouse splenocytes assessed as cell viability after 48 hrs by alamar blue assay; type: toxicity, Splenocyte
Leishmania infantum [2] = test: Antileishmanial activity against Leishmania infantum amastigotes harboring iRFP gene infected BALB/c mouse splenocytes after 48 hrs by infrared imaging method; type: functional
[3] = Selectivity index, ratio of CC50 for BALB/c mouse splenocytes to IC50 for Leishmania infantum amastigotes harboring iRFP gene infected BALB/c mouse splenocytes; type: functional
Leishmania infantum [4] = test: Antileishmanial activity against Leishmania infantum BCN150 promastigotes harboring iRFP gene by infrared imaging method; type: functional
Homo sapiens [5] = species on record: Homo sapiens; test: (§1) Inhibition of human recombinant topoisomerase 1B expressed in topoisomerase 1B- deficient Saccharomyces cerevisiae EKY3 assessed as decrease in relaxation of negatively supercoiled pSK DNA at 100 uM preincubated for 1 min followed by supercoiled pSK DNA addition measured after 5 mins by aggarose gel electrophoresis
Leishmania infantum [6] = test: as §1, with “Leishmania infantum” for “human”
Leishmania infantum [7] = test: as §1, with “Leishmania infantum” for “human”, “5 mins” for “1 min”
[8] = as §1, with “Leishmania infantum” for “human”, “DNA” for “DNA at 100 uM”, “15 mins” for “1 min”
Leishmania infantum [9] = test: as §1, with “Leishmania infantum” for “human”, “15 mins” for “1 min”
[10] = as §1, with “DNA” for “DNA at 100 uM”, “15 mins” for “1 min”
Homo sapiens [11] = species on record: Homo sapiens; test: as §1, with “5 mins” for “1 min”
Homo sapiens [12] = species on record: Homo sapiens; test: as §1, with “15 mins” for “1 min”

| Structure (SMILES) | CC50 at 48 h [1] | IC50 (Leishmania infantum [2]) | Ratio CC50/IC50 [3] | IC50 (Leishmania infantum [4]) | inhibition (Homo sapiens [5]) | inhibition (Leishmania infantum [6]) | inhibition (Leishmania infantum [7]) | IC50 [8] | inhibition (Leishmania infantum [9]) | IC50 [10] | inhibition (Homo sapiens [11]) | inhibition (Homo sapiens [12]) |
| --- | --- | --- | --- | --- | --- | --- | --- | --- | --- | --- | --- | --- |
| Fc1cccc([C@H]2Nc3cccnc3[C@H]3c4ccccc4C[C@H]32)c1 (relative stereo) | 85.3 µM | 94.7 µM | 0.9 | 89.9 µM |  |  |  |  |  |  |  |  |
| CC[C@@]1(O)C(=O)OCc2c1cc1n(c2=O)Cc2cc3ccccc3nc2-1 [CAMPTOTHECIN] | 0.62 µM | 0.03 µM | 20.7 | 1.12 µM | Active | Active |  |  |  |  |  |  |
| c1ccc2c(c1)Cc1c(-c3ccncc3)nc3cccnc3c1-2 | 19.9 µM |  |  | 33.9 µM |  |  |  |  |  |  |  |  |
| COc1ccc(-c2nc3cccnc3c3c2Cc2ccccc2-3)cc1 | 116 µM | 5.8 µM | 20.1 |  |  | Active | Active | 14.1 µM | Active |  |  |  |
| O=[N+]([O-])c1ccc([C@H]2Nc3cccnc3[C@H]3c4ccccc4C[C@H]32)cc1 (relative stereo) | > 100 µM | 91.3 µM | >1.09 | > 100 µM | Active |  | Active | > 100 µM | Active | 10.7 µM | Active |  |
| CCOC(=O)[C@H]1Nc2cccnc2[C@H]2c3ccccc3C[C@H]21 (relative stereo) | > 100 µM | 78.5 µM | >1.27 | 90.8 µM |  |  |  |  |  |  |  |  |
| Fc1ccc([C@H]2Nc3cccnc3[C@H]3c4ccccc4C[C@H]32)cc1F (relative stereo) | 77.5 µM | 76.2 µM | 1.02 | 86.8 µM | Active |  |  |  |  | 24.4 µM | Active |  |
| COc1cccc(-c2nc3cccnc3c3c2Cc2ccccc2-3)c1 | > 100 µM | 93.3 µM | >1.07 | > 100 µM |  | Active | Active | 29.5 µM | Active |  |  |  |
| FC(F)(F)c1ccc(-c2nc3cccnc3c3c2Cc2ccccc2-3)cc1 | 126 µM | 3.35 µM | 37.6 | 84.7 µM | Active | Active | Active | 23.6 µM | Active | 27.4 µM | Active | Active |
| Fc1ccc(-c2nc3cccnc3c3c2Cc2ccccc2-3)cc1 | 50.5 µM | 0.74 µM | 68.2 | 34.9 µM | Active | Active | Active | 14.7 µM | Active | 87.7 µM | Active |  |
| Fc1ccc([C@H]2Nc3cccnc3[C@H]3c4ccccc4C[C@H]32)c(F)c1 (relative stereo) | 32.1 µM | 0.67 µM | 47.9 | 3.7 µM |  | Active | Active | 41.8 µM |  |  |  |  |
| c1ccc2c(c1)C[C@@H]1[C@H]2c2ncccc2N[C@@H]1c1ccncc1 (relative stereo) | 94.6 µM | 65.2 µM | 1.45 | 82.5 µM |  |  |  |  |  |  |  |  |
| Cc1ccc(-c2nc3cccnc3c3c2Cc2ccccc2-3)cc1 | 68.2 µM | 58.3 µM | 1.17 | 69.4 µM |  |  |  |  |  |  |  |  |
| Fc1ccc([C@H]2Nc3cccnc3[C@H]3c4ccccc4C[C@H]32)cc1 (relative stereo) | 57.9 µM | 2.97 µM | 19.5 | 9.8 µM |  |  | Active | 49 µM | Active |  |  |  |
| O=[N+]([O-])c1ccc(-c2nc3cccnc3c3c2Cc2ccccc2-3)cc1 | 88.1 µM | 68.3 µM | 1.29 | > 100 µM | Active | Active | Active | 42.3 µM | Active | 31.6 µM | Active | Active |
| CSc1ccc(-c2nc3cccnc3c3c2Cc2ccccc2-3)cc1 | 80.9 µM | 58.1 µM | 1.39 | 75.1 µM |  |  |  |  |  |  |  |  |
| c1ccc(-c2nc3cccnc3c3c2Cc2ccccc2-3)cc1 | 90.2 µM | 63.3 µM | 1.43 | 70.1 µM |  |  |  |  |  |  |  |  |
| COc1cccc([C@H]2Nc3cccnc3[C@H]3c4ccccc4C[C@H]32)c1 (relative stereo) | 35.8 µM | 0.54 µM | 66.3 | 5.4 µM |  | Active | Active | 21.8 µM |  |  |  |  |
| C[C@@H]1[C@H](O)[C@@H](C)/C=C/C=C/C=C/C=C/C=C/C=C/C=C/[C@H](O[C@@H]2O[C@H](C)[C@@H](O)[C@H](N)[C@@H]2O)C[C@@H]2O[C@](O)(C[C@@H](O)C[C@@H](O)[C@H](O)CC[C@@H](O)C[C@@H](O)CC(=O)O[C@H]1C)C[C@H](O)[C@H]2C(=O)O [AMPHOTERICIN B] | > 20 µM | 0.32 µM | >62.5 | 0.77 µM |  |  |  |  |  |  |  |  |
| CCOC(=O)c1nc2cccnc2c2c1Cc1ccccc1-2 | 59.4 µM | 25.1 µM | 2.4 | 33.3 µM |  |  |  |  |  |  |  |  |
| C[C@H]1Nc2cccnc2[C@H]2c3ccccc3C[C@H]21 (relative stereo) | > 100 µM | 89.4 µM | >1.12 | > 100 µM |  |  |  |  |  |  |  |  |
| FC(F)(F)c1ccc([C@H]2Nc3cccnc3[C@H]3c4ccccc4C[C@H]32)cc1 (relative stereo) | 4.6 µM |  |  | 6.1 µM |  |  | Active | 60.6 µM | Active | 22.4 µM | Active | Active |
| c1ccc2c(c1)Cc1c(-c3ccc4ccccc4c3)nc3cccnc3c1-2 | 75.8 µM | 11.9 µM | 6.4 | 34.6 µM | Active | Active | Active | 28.1 µM | Active | 83.4 µM | Active | Active |
| Fc1ccc(-c2nc3cccnc3c3c2Cc2ccccc2-3)cc1F | 74.2 µM | 78.2 µM | 0.95 | 86.1 µM |  |  |  |  |  |  |  |  |
| Fc1ccc(-c2nc3cccnc3c3c2Cc2ccccc2-3)c(F)c1 | 76.9 µM | 6.07 µM | 12.7 |  |  |  |  |  |  |  |  |  |
| c1ccc([C@H]2Nc3cccnc3[C@H]3c4ccccc4C[C@H]32)cc1 | 94.3 µM | 65.1 µM | 1.45 | > 100 µM | Active |  | Active | 45.2 µM | Active | 46.5 µM | Active |  |
